For twelve molecules, GI50 and TGI results are on record in PubChem BioAssay (NCI).

Assay in all cases: NCI-60 cell line screen, 48 h
In test [1] the test system is BT-549 breast.
Test [2] deals with PC-3 prostate.
The test system of test [3] is NCI-H226 lung.
Test [4] relates to COLO 205 colon.
Test [5] deals with NCI/ADR-RES ovarian.
Test [6] relates to SW-620 colon.

Molecules are shown by their SMILES. “And” between values parts separate entries of the source, which are not always exact repeats. Identical values can stand only once.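 Test compounds were applied to cells in 96-well plates for 48 hours at 5 doses. GI50 = concentration required for 50% inhibition of growth. TGI marks complete inhibition of growth.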

Turning to `COc1cccc2c1c1nc3cc(C)c(C)cc3nc1n2CCN(C)C`, the GI50 is 2.36 µM in test [1]; 1.73 µM in test [2]; 1.63 µM in test [3]; 0.767 µM in test [4]; 1.22 µM in test [5]; 0.805 µM in test [6]. For the same molecule, the TGI in test [1] is 10.2 µM; in test [2], 11.6 µM; in test [3], 6.45 µM; in test [4] it was 3.31 µM; in test [5], 13.3 µM; in test [6], 11.3 µM.
Take `C/C(=C\c1c[nH]c2ccccc12)[N+](=O)[O-]`: the GI50 in test [1] is 11 µM; in test [2], 4.07 µM; in test [3], 13.3 µM; in test [4] it was 5.06 µM; in test [5], 6.23 µM; in test [6] it was 5.78 µM. In addition, the TGI in test [1] stood at 24 µM; in test [2], 15.4 µM; in test [3], 30.6 µM; in test [4], 17.4 µM; in test [5] it was 19.7 µM; in test [6] it was 26 µM.
Turning to `CCCC(=O)NNc1[nH]c(-c2ccc(OC)cc2)cc1C(=O)OCC`, the GI50 in test [1] was 15.7 µM; in test [2], 19.4 µM; in test [3], 16.1 µM; in test [4] it was 2.39 µM; in test [5], 19.2 µM; in test [6] it was 3.54 µM. For the same molecule, the TGI in test [1] is 31 µM; in test [2], 41.4 µM; in test [3], 30.1 µM; in test [4] it was 5.89 µM; in test [5], 47.4 µM; in test [6], 12.6 µM.
Turning to `COc1cc(-c2nc3ccccc3s2)ccc1OCc1nc2n(n1)S(=O)(=O)c1ccccc1N2C`, the GI50 in test [1], in test [2], in test [3], in test [4], in test [5] and in test [6] was above 100 µM throughout. The TGI in test [1], in test [2], in test [3], in test [4], in test [5] and in test [6] was above 100 µM throughout.
With `CN(CCC(=O)O)S(=O)(=O)c1ccccc1`, the TGI in test [1], in test [2], in test [3], in test [4], in test [5] and in test [6] was above 100 µM in each case.
Regarding `C/C(=C\c1ccn(-c2ccc(N)cc2)n1)[C@@H]1C[C@@H]2O[C@]2(C)CCC[C@H](C)[C@H](O)[C@@H](C)C(=O)C(C)(C)[C@@H](O)CC(=O)O1`, the GI50 in test [1] was 0.138 µM; in test [2], 0.0313 µM; in test [3], above 50 µM; in test [4], 0.0175 µM; in test [5] it was 0.106 µM; in test [6], 0.0248 µM. Further, the TGI in test [1] is above 50 µM; in test [2], above 50 µM; in test [3] it was above 50 µM; in test [4] it was 0.634 µM; in test [6], above 50 µM.
On to `CC(C)=CCC/C(C)=C/CC/C(=C/COP(=O)(OCc1ccc([N+](=O)[O-])o1)N(C)CCCCCl)C(C)(C)C` (configuration not stated), for which the GI50 in test [2] is 0.43 µM; in test [4], 15.9 µM; in test [5], 16.3 µM; in test [6] it was 3.07 µM. The TGI in test [2] turned out to be 15.1 µM; in test [4] it was 53.1 µM; in test [5], 38.5 µM; in test [6], 8.57 µM.
`Cn1cnc2c(NCc3ccccc3)nc(NCCO)nc21`: the GI50 in test [1] was 147 µM; in test [2], 41.4 µM; in test [3] it was 17.5 µM; in test [4], 82.2 µM; in test [6], 158 µM. Also, the TGI in test [1] was above 454 µM; in test [2], 283 µM; in test [3], > 93.2 µM and 183 µM; in test [4], 69.7 µM and 282 µM; in test [5] it was 319 µM; in test [6], above 426 µM.
On to `Cc1ccc(C(=O)NC2CCCCC2)cc1-c1ccc(C(=O)NCC2CC2)cc1`, for which the GI50 in test [1] was above 22.6 µM; in test [2], above 22.8 µM; in test [3] it was above 25 µM; in test [4], above 25 µM; in test [5] it was 24.6 µM; in test [6], above 25 µM. Further, the TGI in test [1], in test [2], in test [3], in test [4], in test [5] and in test [6] was above 25 µM throughout.
As for `CO[C@H]1CC[C@@]2(C)C(=CC[C@H]3[C@@H]4C[C@H](O)C[C@@]4(C)CC[C@@H]32)C1`, the GI50 in test [1] was 7.38 µM; in test [2] it was 3.91 µM; in test [3], 13.8 µM; in test [4], 5.02 µM; in test [5], 4.17 µM; in test [6], 3.38 µM. Moreover, the TGI was found to be 22.8 µM in test [1]; 30.3 µM in test [2]; 27.8 µM in test [3]; 16.2 µM in test [4]; 39.9 µM in test [5]; 15 µM in test [6].
`Cc1ccc(NC(=O)c2ccnc(N3CCCC3)c2)cc1-c1ccc(C(=O)NCC2CC2)cc1`: the GI50 in test [1], in test [2], in test [3], in test [4], in test [5] and in test [6] was above 25 µM throughout. Besides, the TGI in test [1], in test [2], in test [3], in test [4], in test [5] and in test [6] was above 25 µM throughout.
Turning to `NC(=O)Oc1cc(OC(N)=O)cc(N(CCCl)CCCl)c1`, the GI50 in test [1] was 7.93 µM; in test [2] it was 7.1 µM; in test [3], 14.9 µM; in test [4], 15.2 µM; in test [5], 5.45 µM; in test [6] it was 7.59 µM. The TGI in test [1] is 30.7 µM; in test [2] it was 54.8 µM; in test [3] it was 77.7 µM; in test [4], 38.6 µM; in test [5], above 100 µM; in test [6], above 100 µM.
